Test results published in US4801610A, “Phenolic ester derivatives as elastase inhibitors” (G. D. Searle & Co., priority 1987, dated 1989).

Each compound was assayed against T1, Human Leukocyte Elastase (HLE) (Homo sapiens, UniProt P08246) (assay: Inhibition of Human Leukocyte Elastase (HLE), hydrolysis of Methoxysuccinyl-Ala-Ala-Pro-Val-nitroanilide). Settings: tris-HCl buffer pH 8.0, absorption at 410 nm, read-out: Inhibition of Elastase IC50, [Molar].
T1 sequence (P08246 30-247 limits assumed): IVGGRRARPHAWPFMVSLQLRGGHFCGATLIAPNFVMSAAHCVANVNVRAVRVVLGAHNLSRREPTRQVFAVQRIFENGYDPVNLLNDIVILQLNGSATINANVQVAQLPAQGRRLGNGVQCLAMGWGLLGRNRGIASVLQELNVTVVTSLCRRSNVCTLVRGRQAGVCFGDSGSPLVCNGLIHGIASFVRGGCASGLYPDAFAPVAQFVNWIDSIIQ
Type: biochemical
Description: Several biochemical and animal model tests can be used to examine the ability of the derivatives of the invention to prevent or alleviate the harmful biological action of elastase. The biochemical assays permit direct measurement of drug controlled inhibition of elastase fragmentation of proteins. […] In these tests, protease reaction with the substrate is measured in the presence and absence of the drug to be tested. Inhibition of protease action is indicated by a decrease in the amount of substrated fragmented. The basic parameters for such biochemical assays have been reported in the literature: J. Biol. Chem., 255, 5435 (1980); Biochem. Biophys Acta., 268, 257 (1973); Anal. Biochem. 48,9 (1972); and Biochemistry, 20, 3675 (1981). EXAMPLE 42 Inhibition of Human Leukocyte Elastase (HLE) This test measures the rate of hydrolysis of Methoxysuccinyl-[…]-nitroanilide by HLE in the presence and absence of the compound to be tested. The procedure used is as follows. […] The test hydrolysis solution was then prepared by adding 850 microliters buffer, 50 microliters derivative solution, 50 microliters peptide solution and 50 microliters of HLE solution to a 1 cm. semi-micro cuvette. The cuvette was capped, slightly shaken and placed in the light chamber of a recording colorimeter where the increase in absorption at 410 nm. due to liberated nitroaniline was measured. Using this procedure, the one minute change in absorption of the test sample containing derivative was compared to the change in absorption in the absence of derivative. A 20% or more decrease in the rate of absorption was interpreted as a positive inhibition.

| IC50 [nM] | Compound |
| --- | --- |
| 620 | CC(C)(C)C(=O)Oc1ccc(C(=O)c2ccccc2)cc1 [Example 1, 4-pivaloyloxybenzophenone] |
| 290 | CC(C)(C)C(=O)Oc1ccc(C(=O)c2ccc(Cl)cc2)cc1 [Example 6, 4-pivaloyloxy-4'-chlorobenzophenone] |
| 150 | CC(C)C(=O)Oc1ccc(C(=O)c2ccc(OC(=O)C(C)C)cc2)cc1 [Example 40, 4,4'-diisobutyryloxybenzophenone] |
| 85 | C=C(C)Cc1cc(C(=O)c2ccccc2)ccc1OC(=O)C(C)(C)C [Example 25, 3-methallyl-4-pivaloyloxybenzophenone] |
| 670 | CCCC(C)(C)C(=O)Oc1ccc(C(=O)c2ccc(OC(=O)C(C)(C)CCC)cc2)cc1 [Example 7, 4,4'-α,α-dimethylvaleroyloxybenzophenone] |
| 84 | CC(C)(C)C(=O)Oc1ccc(C(=O)c2ccccc2)c(OC(=O)C(C)(C)C)c1 [Example 13, 2,4-dipivaloyloxybenzophenone] |
| 350 | CC(C)(C)C(=O)Oc1ccc(C(=O)c2ccccc2)cc1CCCO [Example 29, 3-(3-hydroxyoropyl)-4-pivaloyloxybenzophenone] |
| 460 | CC(C)(C)C(=O)Oc1ccc(Oc2ccc(OC(=O)C(C)(C)C)cc2)cc1 [Example 16, 4,4'-dipivaloyloxydiphenylether] |
| 60 | CC(C)(C)C(=O)Oc1ccc(C(=O)c2ccc(OC(=O)C(C)(C)C)cc2)cc1 [Example 1a, 4,4'-dipivaloyloxybenzophenone] |
| 320 | C=CC(C)c1cc(C(=O)c2ccccc2)ccc1OC(=O)C(C)(C)C (stereo not shown) [Example 27, 3-(1-methyl-allyl)-4-pivaloyloxybenzophenone] |
| 360 | CC(C)(C)C(=O)Oc1cc(C(=O)c2ccc(OC(=O)C(C)(C)C)c(OC(=O)C(C)(C)C)c2OC(=O)C(C)(C)C)cc(OC(=O)C(C)(C)C)c1OC(=O)C(C)(C)C [Example 9, 3,4,5,4',5',6',-hexapivaloyloxybenzophenone] |
| 800 | C=CCc1cc(C(=O)c2ccccc2)ccc1OC(=O)C(C)(C)C [Example 26, 3-allyl-4-pivaloyloxybenzophenone] |
| 55 | CC(C)(C)C(=O)Oc1ccc(C(=O)c2ccc(OC(=O)C(C)(C)C)cc2OC(=O)C(C)(C)C)cc1 [Example 2, 2,4,4'-tripivaloyloxybenzophenone] |
| 250 | CC(C)C(=O)Oc1ccc(C(=O)c2ccccc2)cc1 [Example 34, 4-isobutyryloxybenzophenone] |
| 450 | CC(C)(C)C(=O)Oc1ccc(Cc2ccc(OC(=O)C(C)(C)C)cc2)cc1 [Example 39, 4,4'-dipivaloyloxydiphenylmethane] |
| 900 | CC(C)(C)OC(=O)Oc1ccc(C(=O)c2ccc(OC(=O)OC(C)(C)C)cc2)cc1 [Example 14, 4,4'-di(t-butyloxycarbonyloxy)benzophenone] |
